According to patent US7939541B2, “Intermediates and a process employing the intermediates for the preparation of (3-trifluoromethylsulfonyl)-N-[4-methyl-3-(4-pyridin-3yl-pyrimidin-2ylamino)-phenyl]-benzamide” (Natco Pharma Limited, priority 2004, dated 2011):

How the values were obtained:
[1] = system: pAKT and pERK in glioma and breast cancer cells; assay: Western blot analysis of pAKT and pERK, cell line not stated; type: cell-based; details: for pERK levels: both with and without radiation
Experimental: (§1) Western blot analysis of 4910, 5310 and U87 glioma cells and MDAMB231 and ZR71 breast cancer cells in the presence of specified concentrations of compounds were assessed as per standard protocols. Cells were treated with AN019, AN024 or Temozolomide at the specified concentrations. 24 h after treatment, cells were collected and cell lysates extracted. Equal quantities of proteins were fractionated by SDS-PAGE. The fractionated proteins were blotted on to nylon membranes and immunoprobed for AKT, ERK and Pi3k. Breast cancer cell protein isolates were additionally immunoprobed for EGFR, ErbB1, ErbB2 and ErbB3.

[2] = system: Baf3 murine leukemia cells M351T; assay: Blast cell count in nude mice implanted with Baf3 M351T cells; type: in vivo; details: Baf3M351T; Imatinib 10 mg/kg, AN019 20 mg/kg, AN024 20 mg/kg, oral gavage or ip from day 15; day 42
Text: (§2) Blood smears were obtained via the tail vein or via the femoral vein every 6th day and blast cells counted and graphically represented.
(§3) Abdominal swelling and decrease in activity was monitored daily, blood smear taken via the tail vein or the femoral vein every 6th day and H&E stained as per standard protocols. 42 days after implantation, mice were sacrificed and spleens harvested.
(§4) Blood from tail vein or the femoral vein was taken every 6th day from Baf3 cell implanted mice until day 42.
(§5) Nude mice were intraperitoneally implanted with Baf3 mutant cells (wt, T315I, M351T or E255K). […] Blood was drawn from the femoral vein or tail vein every 6th day and blast cell count determined and graphically represented.

[3] = system: AKT, ERK and Pi3k in ZR71 breast cancer cells; assay: Western blot analysis, ZR71; type: cell-based; details: 24 h
Experimental: as §1

[4] = system: K562; assay: ED50 and therapeutic index in leukemic mice (K562); type: in vivo; details: po, mice
[5] = system: 4910 glioma cells; assay: In vitro angiogenic assay, 4910 conditioned media on human dermal endothelial cells; type: cell-based; details: 4910 cells
Experimental: (§6) The in vitro angiogenesis of 4910, 5310 and U87 glioma cells and MDAMB231 and ZR71 breast cancer cells in the presence of specified concentrations of compounds were determined as follows, cells (2×10^4/well) were seeded in 8-well chamber slides and were treated with various concentrations of test compounds. After a 24 h incubation period, the conditioned media was removed and added to a 4×10^4 human dermal endothelial cell (monolayer in 8-well chamber slides) and the human dermal endothelial cells were allowed to grow for 72 h. Cells were then fixed in 3.7% formaldehyde and stained with H&E and photographed.

[6] = system: Baf3 murine leukemia cells Wt; assay: Blast cell count in nude mice implanted with Baf3 Wt cells; type: in vivo; details: Baf3Wt; Imatinib 10 mg/kg, AN019 20 mg/kg, AN024 20 mg/kg, oral gavage or ip from day 15; day 42
Text: as §2, §3, §4, §5

[7] = system: K562luc cells; assay: Determination of drug temporal penetrance (Tp); type: in vivo, nude mice; details: daily ip from day 15 to day 35, imaged till day 45; AN019 20 mg/kg, AN024 20 mg/kg, Imatinib 10 mg/kg
Experimental: The temporal penetrance was calculated applying the following equation, […].
P=photon counts at day ‘a’, day ‘ter’, or day ‘b’ where ‘a’ is the day when drug treatment was stopped and ‘ter’ is the day when the experiment was terminated and ‘b’ is the day where P is minimum after day a but before day ‘ter’.
n=number of animals alive when P was measured.
The animals were imaged at 6 day intervals post transplantation. […] Drug treatment was stopped on day 35 and animals were imaged till day 45, and calculated as described in methods.

[8] = system: ZR71 breast cancer cells; assay: In vitro angiogenic assay, ZR-71 conditioned media on human dermal endothelial cells; type: cell-based; details: ZR-71 cells, radiation status not specified
Experimental: as §6

[9] = system: AKT, ERK and Pi3k in 5310 glioma cells; assay: Western blot analysis, 5310; type: cell-based; details: for PI3k levels: 24 h
Experimental: as §1

[10] = system: 4910 human glioma xenograft cells; assay: Glioma radiation studies, intracranial tumours; type: in vivo, nude mice
Experimental: Nude mice were intracranially implanted with 4910 human glioma xenograft cells (1×10^6 cells) intracranially. Ten days after implantation mice were treated with AN019, AN024 or temozolomide with or without radiation (5 Gy/week). The experiment was terminated at day 40 post implantation.

[11] = system: K562 luciferase expressing cells; assay: Leukemic survival study; type: in vivo, nude mice
Text: K562 luciferase expressing cells were implanted intraperitoneally into nude mice; the mice were scanned using the xenogeny IVIS image station after ip injections of luciferin does determine implantations. Drug treatment was started as in previous studies day 15 after implantation. The animals were given treatment till day 42, after which drug treatment was stopped and survival of the animals determined as per the animal care regulations. […] Drug treatment was withdrawn on day 42 post implantation and survival of animals determined.

[12] = system: Baf3 murine leukemia cells E255K; assay: Blast cell count in nude mice implanted with Baf3 E255K cells; type: in vivo; details: Baf3E255K (printed E225K); Imatinib 10 mg/kg, AN019 20 mg/kg, AN024 20 mg/kg, oral gavage or ip from day 15; day 42
Text: as §2, §3, §4, §5

[13] = system: MDAMB231 breast cancer cells; assay: In vitro angiogenic assay, MDA-MB-231 conditioned media on human dermal endothelial cells; type: cell-based; details: MDA-MB-231 cells
Experimental: as §6

[14] = system: Baf3 murine leukemia cells T315I; assay: Blast cell count in nude mice implanted with Baf3 T315I cells; type: in vivo; details: Baf3T315I; Imatinib 10 mg/kg, AN019 20 mg/kg, AN024 20 mg/kg, oral gavage or ip from day 15; day 42
Text: as §2, §3, §4, §5

[15] = system: 5310 glioma cells; assay: In vitro angiogenic assay, 5310 conditioned media on human dermal endothelial cells; type: cell-based; details: 5310 cells
Experimental: as §6

Cc1ccc(NC(=O)c2cc(C(F)(F)F)cc(C(F)(F)F)c2)cc1Nc1nccc(-c2cccnc2)n1 [AN019]
pERK levels [1]: reduced significantly
blast cell count in blood smears [2]: significant decrease in blast cell count
AKT levels ([3]; ZR71, after radiation): enhanced after radiation
PI3k levels ([3]; ZR71, with radiation): absent
AKT levels ([3]; ZR71, without radiation): decrease in AKT levels
PI3k levels ([3]; ZR71, without radiation): absent
ED50 (po) Mice [4]: 11.5 mg/kg
inhibition of angiogenesis ([5]; with radiation): increase in angiogenic inhibition after radiation
MTD Mice (Maximum Tolerated Dose): 500 mg/kg
LD50 (po) Mice (po): 1133 mg/kg
blast cell count in blood smears [6]: complete regression of leukemic blast cells
temporal penetrance (Tp) [7]: 2.0
inhibition of angiogenesis [8]: complete inhibition of angiogenesis
AKT expression levels ([9]; 5310, 24 h): decrease in AKT expression levels
PI3k levels ([9]; 5310, after radiation treatment): reappeared after radiation treatment
PI3k levels ([9]; 5310, without radiation): almost undetectable
intracranial tumours (size, appearance) ([10]; without radiation): tumours similar to AN024 treated animals
blast cell count from blood smears after withdrawal of drug treatment ([11]; drug treatment withdrawn on day 42 (FIG. 6C)): showed effectiveness after withdrawal of drug treatment
animals showing no signs of leukemia / complete absence of leukemic symptoms ([11]; of 10 animals, treatment day 15 to day 42, then withdrawn, AN024 read on day 55): 7 animals
mortality (day post implantation) ([11]; treatment day 15 to day 42, then withdrawn): did not show any mortality
blast cell count in blood smears [12]: significant decrease in blast cell count
inhibition of angiogenesis ([13]; with radiation): slight inhibition
blast cell count in blood smears [14]: significant decrease in blast cell count

Cn1nnc2c(C(N)=O)ncn2c1=O [Temozolomide, reference compound]
pERK levels [1]: did not show any significant change
pAKT levels ([1]; with or without radiation): did not show any significant change
inhibition of angiogenesis ([5]; with radiation): significant inhibition of angiogenesis
inhibition of angiogenesis ([5]; without radiation): significant inhibition of angiogenesis
inhibition of angiogenesis [8]: complete inhibition of angiogenesis
intracranial tumours (size, appearance) ([10]; with radiation (5 Gy/week)): further regression in tumor size
intracranial tumours (size, appearance) ([10]; without radiation): reduction in intracranial tumours
inhibition of angiogenesis ([15]; after radiation treatment): angiogenesis was promoted
inhibition of angiogenesis ([15]; control conditions (without radiation)): inhibition of angiogenesis was seen
inhibition of angiogenesis ([13]; control condition (without radiation)): only a slight inhibition
inhibition of angiogenesis ([13]; with radiation): increase in inhibition after radiation
